Data: patent US9999619B2, “Piperidin-4-yl azetidine derivatives as JAK1 inhibitors” (Incyte Corporation, priority 2010, dated 2018)

Columns and labels:
Format in all cases: biochemical
Jak2 (a.a. 828-1132) = Jak2 (a.a. 828-1132) (Homo sapiens (Human), UniProt O60674); assay: In vitro JAK kinase assay (HTRF, phosphorylation of a biotinylated peptide), JAK2; conditions: measured at 1 mM ATP
Protocol: (§1) Compounds herein were tested for inhibitory activity of JAK targets according to the following in vitro assay described in Park et al., Analytical Biochemistry 1999, 269, 94-104. The catalytic domains of human JAK1 (a.a. 837-1142), Jak2 (a.a. 828-1132) and Jak3 (a.a. 781-1124) with an N-terminal His tag were expressed using baculovirus in insect cells and purified. The catalytic activity of JAK1, JAK2 or JAK3 was assayed by measuring the phosphorylation of a biotinylated peptide. The phosphorylated peptide was detected by homogenous time resolved fluorescence (HTRF). […] Reactions were carried out at room temperature for 1 hr and then stopped with 20 μL 45 mM EDTA, 300 nM SA-APC, 6 nM Eu-Py20 in assay buffer (Perkin Elmer, Boston, Mass.). Binding to the Europium labeled antibody took place for 40 minutes and HTRF signal was measured on a Fusion plate reader (Perkin Elmer, Boston, Mass.).

[1] = molecular target: human JAK1 (a.a. 837-1142) (Homo sapiens, UniProt P23458); assay: In vitro JAK kinase assay (HTRF, phosphorylation of a biotinylated peptide), JAK1; conditions: measured at 1 mM ATP
Protocol: as §1

[2] = molecular target: human JAK1 (a.a. 837-1142); assay: as above; conditions: ratio of JAK2 IC50 to JAK1 IC50, measured at 1 mM ATP
Protocol: as §1

Sequence of Jak2 (a.a. 828-1132) (O60674 828-1132): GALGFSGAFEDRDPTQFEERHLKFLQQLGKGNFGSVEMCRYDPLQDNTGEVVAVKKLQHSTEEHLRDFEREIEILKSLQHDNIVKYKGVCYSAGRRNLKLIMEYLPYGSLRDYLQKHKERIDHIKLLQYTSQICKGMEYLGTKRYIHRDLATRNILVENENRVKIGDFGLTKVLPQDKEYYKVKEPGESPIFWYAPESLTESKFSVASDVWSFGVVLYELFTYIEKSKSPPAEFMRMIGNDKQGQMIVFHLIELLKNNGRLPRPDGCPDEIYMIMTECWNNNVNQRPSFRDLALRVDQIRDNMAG

Row | IC50 (Jak2 (a.a. 828-1132)) | IC50 [1] | IC50 Ratio JAK2/JAK1 [2] | SMILES
1 | 0.01 to 0.05 µM | 0.005 to 0.02 µM | 3.6 | N#CCC1(n2cc(-c3ncnc4[nH]ccc34)cn2)CN(C2CCN(C(=O)Nc3ncccc3C(F)(F)F)CC2)C1 [Example 201, 4-{3-(cyanomethyl)-3-[4-(7H-pyrrolo[2,3-d]pyrimidin-4-yl)-1H-pyrazol-1-yl]azetidin-1-yl}-N-[3-(trifluoromethyl)pyridin-2-yl]piperidine-1-carboxamide]
2 | 0.01 to 0.05 µM | 0.005 to 0.02 µM | 1.9 | N#CCC1(n2cc(-c3ncnc4[nH]ccc34)cn2)CN(C2CCN(Cc3ccnc(Br)c3)CC2)C1 [Example 226, {1-{1-[(2-bromopyridin-4-yl)methyl]piperidin-4-yl}-3-[4-(7H-pyrrolo[2,3-d]pyrimidin-4-yl)-1H-pyrazol-1-yl]azetidin-3-yl}acetonitrile]
3 | 0.01 to 0.05 µM | ≤ 0.005 µM | 6.8 | COc1ccc2nc(Cl)c(CN3CCC(N4CC(CC#N)(n5cc(-c6ncnc7[nH]ccc67)cn5)C4)CC3)cc2c1 [Example 238, {1-{1-[(2-chloro-6-methoxyquinolin-3-yl)methyl]piperidin-4-yl}-3-[4-(7H-pyrrolo[2,3-d]pyrimidin-4-yl)-1H-pyrazol-1-yl]azetidin-3-yl}acetonitrile]
4 | ≤ 0.01 µM | ≤ 0.005 µM | 2.2 | Cn1c(NC(=O)N2CCC(N3CC(CC#N)(n4cc(-c5ncnc6[nH]ccc56)cn4)C3)CC2)nc2ccccc21 [Example 194, 4-{3-(cyanomethyl)-3-[4-(7H-pyrrolo[2,3-d]pyrimidin-4-yl)-1H-pyrazol-1-yl]azetidin-1-yl}-N-(1-methyl-1H-benzimidazol-2-yl)piperidine-1-carboxamide]
5 | 0.01 to 0.05 µM | 0.005 to 0.02 µM | 3.2 | Cc1cc(NC(=O)N2CCC(N3CC(CC#N)(n4cc(-c5ncnc6[nH]ccc56)cn4)C3)CC2)n(C)n1 [Example 197, 4-{3-(cyanomethyl)-3-[4-(7H-pyrrolo[2,3-d]pyrimidin-4-yl)-1H-pyrazol-1-yl]azetidin-1-yl}-N-(1,3-dimethyl-1H-pyrazol-5-yl)piperidine-1-carboxamide]
6 | > 0.1 µM | 0.02 to 0.03 µM | 6.0 | N#CCC1(n2cc(-c3ncnc4[nH]ccc34)cn2)CN(C2CCN(C(=O)c3ccc(-c4nc5ccccc5o4)c(F)c3)CC2)C1 [Example 137, {1-{1-[4-(1,3-benzoxazol-2-yl)-3-fluorobenzoyl]piperidin-4-yl}-3-[4-(7H-pyrrolo[2,3-d]pyrimidin-4-yl)-1H-pyrazol-1-yl]azetidin-3-y4}acetonitrile]
7 | 0.05 to 0.1 µM | 0.005 to 0.02 µM | 5.8 | CC1CC(N2CC(CC#N)(n3cc(-c4ncnc5[nH]ccc45)cn3)C2)CCN1C(=O)C1CCC(F)(F)CC1 (stereo not shown) [Example 151, {1-{1-[(4,4-difluorocyclohexyl)carbonyl]-2-methylpiperidin-4-yl}-3-[4-(7H-pyrrolo[2,3-d]pyrimidin-4-yl)-1H-pyrazol-1-yl]azetidin-3-yl}acetonitrile]
8 | ≤ 0.01 µM | ≤ 0.005 µM | 2.8 | N#CCC1(n2cc(-c3ncnc4[nH]ccc34)cn2)CN(C2CCN(C(=O)c3cc(Cl)sc3Cl)CC2)C1 [Example 30, {1-{1-[(2,5-dichloro-3-thienyl)carbonyl]piperidin-4-yl}-3-[4-(7H-pyrrolo[2,3-d]pyrimidin-4-yl)-1H-pyrazol-1-yl]azetidin-3-yl}acetonitrile]
9 | ≤ 0.01 µM | ≤ 0.005 µM | 5.5 | N#CCC1(n2cc(-c3ncnc4[nH]ccc34)cn2)CN(C2CCN(C(=O)Nc3cccc(C(F)(F)F)c3)CC2)C1 [Example 166, 4-{3-(cyanomethyl)-3-[4-(7H-pyrrolo[2,3-d]pyrimidin-4-yl)-1H-pyrazol-1-yl]azetidin-1-yl}-N-[3-(trifluoromethyl)phenyl]piperidine-1-carboxamide]
10 | 0.01 to 0.05 µM | ≤ 0.005 µM | 54.2 | CN(C)Cc1cc(C(=O)N2CCC(N3CC(CC#N)(n4cc(-c5ncnc6[nH]ccc56)cn4)C3)CC2)c(F)c(C(F)(F)F)n1 [Example 368, {1-{1-[6-[(dimethylamino)methyl]-3-fluoro-2-(trifluoromethyl)isonicotinoyl]piperidin-4-yl}-3-[4-(7H-pyrrolo[2,3-d]pyrimidin-4-yl)-1H-pyrazol-1-yl]azetidin-3-yl}acetonitrile]
11 | ≤ 0.01 µM | ≤ 0.005 µM | 2.5 | COC(=O)c1cc(F)ccc1NC(=O)N1CCC(N2CC(CC#N)(n3cc(-c4ncnc5[nH]ccc45)cn3)C2)CC1 [Example 207, methyl 2-{[(4-{3-(cyanomethyl)-3-[4-(7H-pyrrolo[2,3-d]pyrimidin-4-yl)-1H-pyrazol-1-yl]azetidin-1-yl}piperidin-1-yl)carbonyl]amino}-5-fluorobenzoate]
12 | 0.01 to 0.05 µM | ≤ 0.005 µM | 12.0 | N#CCC1(n2cc(-c3ncnc4[nH]ccc34)cn2)CN(C2CCN(C(=O)Nc3ccccc3OC(F)(F)F)CC2)C1 [Example 158, 4-{3-(cyanomethyl)-3-[4-(7H-pyrrolo[2,3-d]pyrimidin-4-yl)-1H-pyrazol-1-yl]azetidin-1-yl}-N-[2-(trifluoromethoxy)phenyl]piperidine-1-carboxamide]
13 | 0.01 to 0.05 µM | ≤ 0.005 µM | 7.9 | N#CCC1(n2cc(-c3ncnc4[nH]ccc34)cn2)CN(C2CCN(C(=O)c3ccc(-c4ccc5ccncc5c4)c(F)c3)CC2)C1 [Example 133, {1-[1-(3-fluoro-4-isoquinolin-7-ylbenzoyl)piperidin-4-yl]-3-[4-(7H-pyrrolo[2,3-d]pyrimidin-4-yl)-1H-pyrazol-1-yl]azetidin-3-yl}acetonitrile]
14 | ≤ 0.01 µM | 0.005 to 0.02 µM | 0.9 | N#CCC1(n2cc(-c3ncnc4[nH]ccc34)cn2)CN(C2CCN(C(=O)c3cnc4ccccc4c3)CC2)C1 [Example 88, {3-[4-(7H-pyrrolo[2,3-d]pyrimidin-4-yl)-1H-pyrazol-1-yl]-1-[1-(quinolin-3-ylcarbonyl)piperidin-4-yl]azetidin-3-yl}acetonitrile]
15 |  |  | 1.5 | CC1CC(N2CC(CC#N)(n3cc(-c4ncnc5[nH]ccc45)cn3)C2)CCN1Cc1c(F)cccc1Cl (stereo not shown) [Example 245, {1-[1-(2-chloro-6-fluorobenzyl)-2-methylpiperidin-4-yl]-3-[4-(7H-pyrrolo[2,3-d]pyrimidin-4-yl)-1H-pyrazol-1-yl]azetidin-3-yl}acetonitrile]
16 |  |  | 6.4 | CC1CC(N2CC(CC#N)(n3cc(-c4ncnc5[nH]ccc45)cn3)C2)CCN1Cc1ccc(N(C)C)c(C#N)c1F (single isomer, unassigned) [Example 243, 3-[(4-{3-(cyanomethyl)-3-[4-(7H-pyrrolo[2,3-d]pyrimidin-4-yl)-1H-pyrazol-1-yl]azetidin-1-yl}-2-methylpiperidin-1-yl)methyl]-6-(dimethylamino)-2-fluorobenzonitrile]
17 |  |  | 1.8 | CC1CC(N2CC(CC#N)(n3cc(-c4ncnc5[nH]ccc45)cn3)C2)CCN1Cc1c(F)cccc1Cl (stereo not shown) [Example 244, {1-[1-(2-chloro-6-fluorobenzyl)-2-methylpiperidin-4-yl]-3-[4-(7H-pyrrolo[2,3-d]pyrimidin-4-yl)-1H-pyrazol-1-yl]azetidin-3-yl}acetonitrile]
18 |  | ≤ 0.005 µM | 7.0 | CC1CC(N2CC(CC#N)(n3cc(-c4ncnc5[nH]ccc45)cn3)C2)CCN1C(=O)c1cccc(F)c1 (single isomer, unassigned) [Example 150, {1-[1-(3-fluorobenzoyl)-2-methylpiperidin-4-yl]-3-[4-(7H-pyrrolo[2,3-d]pyrimidin-4-yl)-1H-pyrazol-1-yl]azetidin-3-yl}acetonitrile]
19 |  | ≤ 0.005 µM | 5.0 | CC1CC(N2CC(CC#N)(n3cc(-c4ncnc5[nH]ccc45)cn3)C2)CCN1C(=O)c1cccc(F)c1 (single isomer, unassigned) [Example 149, {1-[1-(3-fluorobenzoyl)-2-methylpiperidin-4-yl]-3-[4-(7H-pyrrolo[2,3-d]pyrimidin-4-yl)-1H-pyrazol-1-yl]azetidin-3-yl}acetonitrile]
20 |  |  | 8.3 | CC1CC(N2CC(CC#N)(n3cc(-c4ncnc5[nH]ccc45)cn3)C2)CCN1Cc1ccc(N(C)C)c(C#N)c1F (single isomer, unassigned) [Example 242, 3-[(4-{3-(cyanomethyl)-3-[4-(7H-pyrrolo[2,3-d]pyrimidin-4-yl)-1H-pyrazol-1-yl]azetidin-1-yl}-2-methylpiperidin-1-yl)methyl]-6-(dimethylamino)-2-fluorobenzonitrile]

Row | SMILES | IC50 (Jak2 (a.a. 828-1132)) | IC50 [1] | IC50 Ratio JAK2/JAK1 [2]
21 | N#CCC1(n2cc(-c3ncnc4[nH]ccc34)cn2)CN(C2CCN(C(=O)c3ccc(-c4cccc5cccnc45)c(F)c3)CC2)C1 [Example 132, {1-[1-(3-fluoro-4-quinolin-8-ylbenzoyl)piperidin-4-yl]-3-[4-(7H-pyrrolo[2,3-d]pyrimidin-4-yl)-1H-pyrazol-1-yl]azetidin-3-yl}acetonitrile] | ≤ 0.01 µM |  | 5.8
